Measurements from US10316017B2, “COT modulators and methods of use thereof” (Gilead Sciences, Inc., priority 2015, dated 2019).

How the values were obtained:
[1] = test system: TNFα production in LPS-stimulated human monocytes; assay: Cot Monocyte TNFα Cell Based Assay; details: Homo sapiens, Monocyte, TNFα in LPS-stimulated human monocytes; read-out: EC50 TNF
How it was run: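 Cells at 5,000/well were pretreated with compound for 1 h at 37 °C (0.5% DMSO final), then stimulated with 50 pg/ml LPS for 4 h at 37 °C. Supernatant TNFα was measured by two-antibody TR-FRET after overnight room-temperature incubation; values are percent of control between unstimulated and stimulated wells.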

[2] = target: T1, human Cot catalytic domain (30-397 amino acids) (Homo sapiens, UniProt P41279); assay: High Throughput Cot Biochemical Assay (KinEASE TR-FRET); details: Cot KinEASE TR-FRET (HTRF) biochemical assay, 400 μM ATP; read-out: IC50 HTRF
T1 construct: Purified recombinant human Cot catalytic domain (30-397 amino acids) was purchased from Cama Biosciences; purchased Cama Biosciences (so in the source)
T1 sequence (P41279 30-397): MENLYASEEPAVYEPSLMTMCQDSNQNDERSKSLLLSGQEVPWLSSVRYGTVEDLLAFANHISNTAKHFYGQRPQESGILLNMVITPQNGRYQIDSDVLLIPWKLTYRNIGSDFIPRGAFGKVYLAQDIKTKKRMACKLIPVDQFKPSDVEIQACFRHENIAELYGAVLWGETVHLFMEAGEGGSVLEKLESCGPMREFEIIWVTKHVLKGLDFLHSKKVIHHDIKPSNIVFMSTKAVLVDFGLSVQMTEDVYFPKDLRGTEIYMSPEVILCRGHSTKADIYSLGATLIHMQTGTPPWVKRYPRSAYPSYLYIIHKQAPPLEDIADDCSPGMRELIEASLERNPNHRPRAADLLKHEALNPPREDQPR
How it was run: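 Reaction of 5 nM recombinant human Cot catalytic domain (aa 30-397) with 1 μM STK3 peptide (XL665-labeled) and 400 μM ATP in 10 mM MOPS pH 7.0, 10 mM MgOAc, 1 mM DTT, 0.5 mg/mL BSA, 0.1% DMSO. Phosphopeptide detected by TR-FRET with europium anti-phospho antibody.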

EC50 [1] | IC50 [2] | SMILES
> 10000 nM | 864 nM | CC(C)n1cc([C@@H](Nc2cc(Cl)c3ncc(C#N)c(N[C@@H](CC#N)c4ccccc4)c3c2)c2ccc(F)cc2)nn1 [Example 304, 8-chloro-4-(((S)-2-cyano-1-phenylethyl)amino)-6-(((S)-(4-fluorophenyl)(1-isopropyl-1H-1,2,3-triazol-4-yl)methyl)amino)quinoline-3-carbonitrile]
78 nM | 4 nM | CC(C)n1cc([C@@H](Nc2cc(Cl)c3ncc(C#N)c(N[C@H](CC#N)c4ccccc4)c3c2)c2ccc(F)cc2)nn1 [Example 305, 8-chloro-4-(((R)-2-cyano-1-phenylethyl)amino)-6-(((S)-(4-fluorophenyl)(1-isopropyl-1H-1,2,3-triazol-4-yl)methyl)amino)quinoline-3-carbonitrile]
950 nM | 116 nM | [2H][C@](Nc1cc(Cl)c2ncc(C#N)c(NC(c3ccccc3)C(C)(C)C)c2c1)(c1ccc(F)cc1)c1cn(C2CC2)nn1 (stereo partly drawn) [Example 307, 8-chloro-6-(((S)-(1-cyclopropyl-1H-1,2,3-triazol-4-yl)(4-fluorophenyl)methyl-d)amino)-4-((2,2-dimethyl-1-phenylpropyl)amino)quinoline-3-carbonitrile]
361 nM | 26 nM | [2H][C@](Nc1cc(Cl)c2ncc(C#N)c(NCC(C)(C)CO)c2c1)(c1ccc(F)cc1)c1cn(C2CC2)nn1 [Example 308, (S)-8-chloro-6-(((1-cyclopropyl-1H-1,2,3-triazol-4-yl)(4-fluorophenyl)methyl-d)amino)-4-((3-hydroxy-2,2-dimethylpropyl)amino) quinoline-3-carbonitrile]
2360 nM | > 10000 nM | [2H][C@](Nc1cc(Cl)c2ncc(C#N)c(NNC(C)(C)C)c2c1)(c1ccc(F)cc1)c1cn(C2CC2)nn1 [Example 310, (S)-4-(2-(tert-butyl)hydrazinyl)-8-chloro-6-(((1-cyclopropyl-1H-1,2,3-triazol-4-yl)(4-fluorophenyl)methyl-d)amino)quinoline-3-carbonitrile]
177 nM | 5 nM | [2H][C@](Nc1cc(Cl)c2ncc(C#N)c(NCC(C)(C)C)c2c1)(c1ccccc1)c1cn(C2CC2)nn1 [Example 312, (S)-8-chloro-6-(((1-cyclopropyl-1H-1,2,3-triazol-4-yl)(phenyl)methyl-d)amino)-4-(neopentylamino)quinoline-3-carbonitrile]
527 nM | 39 nM | [2H][C@](Nc1cc(Cl)c2ncc(C#N)c(N[C@H]3CCC[C@H](O)C3)c2c1)(c1ccc(F)cc1)c1cn(C2CC2)nn1 [Example 313, 8-chloro-6-(((S)-(1-cyclopropyl-1H-1,2,3-triazol-4-yl)(4-fluorophenyl)methyl-d)amino)-4-(((1S,3S)-3-hydroxycyclohexyl)amino) quinoline-3-carbonitrile]
6390 nM | 1330 nM | [2H][C@](Nc1cc(Cl)c2ncc(C#N)c(N[C@@H]3CCC[C@H](O)C3)c2c1)(c1ccc(F)cc1)c1cn(C2CC2)nn1 [Example 314, 8-chloro-6-(((S)-(1-cyclopropyl-1H-1,2,3-triazol-4-yl)(4-fluorophenyl)methyl-d)amino)-4-(((1R,3S)-3-hydroxycyclohexyl)amino) quinoline-3-carbonitrile]
1010 nM | 134 nM | [2H][C@](Nc1cc(Cl)c2ncc(C#N)c(N[C@H]3CCC[C@@H](O)C3)c2c1)(c1ccc(F)cc1)c1cn(C2CC2)nn1 [Example 315, 8-chloro-6-(((S)-(1-cyclopropyl-1H-1,2,3-triazol-4-yl)(4-fluorophenyl)methyl-d)amino)-4-(((1S,3R)-3-hydroxycyclohexyl)amino) quinoline-3-carbonitrile]
3640 nM | 1820 nM | [2H][C@](Nc1cc(Cl)c2ncc(C#N)c(N[C@@H]3CCC[C@@H](O)C3)c2c1)(c1ccc(F)cc1)c1cn(C2CC2)nn1 [Example 316, 8-chloro-6-(((S)-(1-cyclopropyl-1H-1,2,3-triazol-4-yl)(4-fluorophenyl)methyl-d)amino)-4-(((1R,3R)-3-hydroxycyclohexyl)amino) quinoline-3-carbonitrile]
